Reference: patent publication US7414071B2, “Methods of treatment with selective EP4 receptor agonists” (Pfizer Inc., priority 2002, dated 2008)

What was measured:
[1] = system: New Zealand White male rabbits; assay: In vivo anesthetized rabbit model (hypotensive effect: mean arterial pressure and heart rate)
Method: Methods: New Zealand White male rabbits (3-4 kg) are anesthetized with sodium pentobarbital (30 mg/kg, i.v.) and a surgical plane of anesthesia is maintained by a continuous infusion of sodium pentobarbital (16 mg/kg/hr) via an ear vein catheter. A tracheotomy is performed through a ventral midline cervical incision and the rabbits are ventilated with 100% oxygen using a positive pressure ventilator. Body temperature is maintained at 38.5° C. using a heating pad connected to a YSI temperature controller model 72 (Yellow Springs Instruments, Yellow Springs, […].). Fluid-filled catheters are placed in the right jugular vein (for intravenous drug administration) and in the right carotid artery for arterial pressure monitoring and for blood gas analysis using a model 248 blood gas analyzer (Bayer Diagnostics, Norwood, Mass.). The ventilator is adjusted as needed to maintain blood pH and pCO2 within normal physiological ranges for rabbits. […] Blood is sampled after dosing or during the infusion of the test compound to determine plasma concentrations of the test compounds.
Thus, dosing volumes were 0.2 ml/kg (Group A) subcutaneously or 5 ml/h (Groups B, C, and D) as an intravenous (IV) infusion. The term “mgA” means the number of milligrams adjusted for active compound (e.g. corrected for salt etc.).
Dosing: Four groups (Groups A, B, C, and D) of two rabbits each were dosed as follows.

M. fascicularis primates = assay: In vivo primate model (hypotensive effect: mean arterial pressure and heart rate); settings: monkeys; for mean arterial pressure (MAP) / heart rate (HR): 0.1 mgA/kg SC bolus, mean of 2; for mean arterial pressure (MAP): baseline 101; for heart rate (HR): baseline 161
[2] = Group D, 1.67 μg/kg/h, 4 hour IV infusion
[3] = Group A, 1 mgA/kg SC, three monkeys
[4] = Group C, 0.1 mgA/kg SC, 2 monkeys

**Q.** Which results are given for `O=C([O-])c1ccc(CCCN2C(=O)CC[C@@H]2CC[C@@H](O)Cc2cccc(C(F)(F)F)c2)s1.[Na+]` [Compound 3M sodium salt]?
**A.** heart rate (HR) ([1]; Group C, 16.7 μg/kg/hr IV infusion for 4 hours, 90 min, mean of 2, baseline 291): 301 beats/minute; mean arterial pressure (MAP) ([1]; Group C, 16.7 μg/kg/hr IV infusion for 4 hours, 120 min, mean of 2, baseline 95): 85 mm Hg; heart rate (HR) ([1]; Group C, 16.7 μg/kg/hr IV infusion for 4 hours, 120 min, mean of 2, baseline 291): 304 beats/minute; mean arterial pressure (MAP) ([1]; Group C, 16.7 μg/kg/hr IV infusion for 4 hours, 150 min, mean of 2, baseline 95): 85 mm Hg; heart rate (HR) ([1]; Group C, 16.7 μg/kg/hr IV infusion for 4 hours, 150 min, mean of 2, baseline 291): 301 beats/minute; mean arterial pressure (MAP) ([1]; Group C, 16.7 μg/kg/hr IV infusion for 4 hours, 180 min, mean of 2, baseline 95): 85 mm Hg; heart rate (HR) ([1]; Group C, 16.7 μg/kg/hr IV infusion for 4 hours, 180 min, mean of 2, baseline 291): 298 beats/minute; mean arterial pressure (MAP) ([1]; Group C, 16.7 μg/kg/hr IV infusion for 4 hours, 210 min, mean of 2, baseline 95): 89 mm Hg; heart rate (HR) ([1]; Group C, 16.7 μg/kg/hr IV infusion for 4 hours, 210 min, mean of 2, baseline 291): 307 beats/minute; mean arterial pressure (MAP) ([1]; Group C, 16.7 μg/kg/hr IV infusion for 4 hours, 240 min, mean of 2, baseline 95): 89 mm Hg; heart rate (HR) ([1]; Group C, 16.7 μg/kg/hr IV infusion for 4 hours, 240 min, mean of 2, baseline 291): 306 beats/minute; effect on heart rate [1, 2]: no significant change; effect on mean arterial pressure [1, 2]: no significant change; mean arterial pressure (MAP) ([1]; Group D, 1.67 μg/kg/hr IV infusion for 4 hours, 5 min, mean of 2, baseline 89): 85 mm Hg; heart rate (HR) ([1]; Group D, 1.67 μg/kg/hr IV infusion for 4 hours, 5 min, mean of 2, baseline 260): 258 beats/minute; mean arterial pressure (MAP) ([1]; Group D, 1.67 μg/kg/hr IV infusion for 4 hours, 10 min, mean of 2, baseline 89): 87 mm Hg; heart rate (HR) ([1]; Group D, 1.67 μg/kg/hr IV infusion for 4 hours, 10 min, mean of 2, baseline 260): 260 beats/minute; mean arterial pressure (MAP) ([1]; Group D, 1.67 μg/kg/hr IV infusion for 4 hours, 15 min, mean of 2, baseline 89): 85 mm Hg; heart rate (HR) ([1]; Group D, 1.67 μg/kg/hr IV infusion for 4 hours, 15 min, mean of 2, baseline 260): 262 beats/minute; mean arterial pressure (MAP) ([1]; Group D, 1.67 μg/kg/hr IV infusion for 4 hours, 30 min, mean of 2, baseline 89): 85 mm Hg; heart rate (HR) ([1]; Group D, 1.67 μg/kg/hr IV infusion for 4 hours, 30 min, mean of 2, baseline 260): 262 beats/minute; mean arterial pressure (MAP) ([1]; Group D, 1.67 μg/kg/hr IV infusion for 4 hours, 60 min, mean of 2, baseline 89): 87 mm Hg; heart rate (HR) ([1]; Group D, 1.67 μg/kg/hr IV infusion for 4 hours, 60 min, mean of 2, baseline 260): 255 beats/minute; mean arterial pressure (MAP) ([1]; Group D, 1.67 μg/kg/hr IV infusion for 4 hours, 90 min, mean of 2, baseline 89): 87 mm Hg; heart rate (HR) ([1]; Group D, 1.67 μg/kg/hr IV infusion for 4 hours, 90 min, mean of 2, baseline 260): 253 beats/minute; mean arterial pressure (MAP) ([1]; Group D, 1.67 μg/kg/hr IV infusion for 4 hours, 120 min, mean of 2, baseline 89): 85 mm Hg; heart rate (HR) ([1]; Group D, 1.67 μg/kg/hr IV infusion for 4 hours, 120 min, mean of 2, baseline 260): 246 beats/minute; mean arterial pressure (MAP) ([1]; Group D, 1.67 μg/kg/hr IV infusion for 4 hours, 150 min, mean of 2, baseline 89): 87 mm Hg; heart rate (HR) ([1]; Group D, 1.67 μg/kg/hr IV infusion for 4 hours, 150 min, mean of 2, baseline 260): 246 beats/minute; mean arterial pressure (MAP) ([1]; Group D, 1.67 μg/kg/hr IV infusion for 4 hours, 180 min, mean of 2, baseline 89): 87 mm Hg; heart rate (HR) ([1]; Group D, 1.67 μg/kg/hr IV infusion for 4 hours, 180 min, mean of 2, baseline 260): 246 beats/minute; mean arterial pressure (MAP) ([1]; Group D, 1.67 μg/kg/hr IV infusion for 4 hours, 210 min, mean of 2, baseline 89): 85 mm Hg; heart rate (HR) ([1]; Group D, 1.67 μg/kg/hr IV infusion for 4 hours, 210 min, mean of 2, baseline 260): 247 beats/minute; mean arterial pressure (MAP) ([1]; Group D, 1.67 μg/kg/hr IV infusion for 4 hours, 240 min, mean of 2, baseline 89): 92 mm Hg; heart rate (HR) ([1]; Group D, 1.67 μg/kg/hr IV infusion for 4 hours, 240 min, mean of 2, baseline 260): 257 beats/minute; duration of hypotension (M. fascicularis primates; Group A, 1 mgA/kg SC): sustained over the 4 hours post-dose; onset of hypotension (M. fascicularis primates; Group A, 1 mgA/kg SC): < 2 min; effect on heart rate (M. fascicularis primates; [3]): transient increase in heart rate; effect on mean arterial pressure (M. fascicularis primates; [3]): decrease in mean arterial pressure; duration of hypotension (M. fascicularis primates; Group C, 0.1 mgA/kg SC): sustained over the 4 hours post-dose; onset of hypotension (M. fascicularis primates; Group C, 0.1 mgA/kg SC): < 4 min; mean arterial pressure (MAP) (M. fascicularis primates; Group C, 5 min post-dose): 91 mm Hg; heart rate (HR) (M. fascicularis primates; Group C, 5 min post-dose): 203 beats/minute; mean arterial pressure (MAP) (M. fascicularis primates; Group C, 10 min post-dose): 57 mm Hg; heart rate (HR) (M. fascicularis primates; Group C, 10 min post-dose): 206 beats/minute; mean arterial pressure (MAP) (M. fascicularis primates; Group C, 15 min post-dose): 51 mm Hg; heart rate (HR) (M. fascicularis primates; Group C, 15 min post-dose): 187 beats/minute; mean arterial pressure (MAP) (M. fascicularis primates; Group C, 30 min post-dose): 53 mm Hg; heart rate (HR) (M. fascicularis primates; Group C, 30 min post-dose): 190 beats/minute; mean arterial pressure (MAP) (M. fascicularis primates; Group C, 60 min post-dose): 58 mm Hg; heart rate (HR) (M. fascicularis primates; Group C, 60 min post-dose): 180 beats/minute; mean arterial pressure (MAP) (M. fascicularis primates; Group C, 90 min post-dose): 58 mm Hg; heart rate (HR) (M. fascicularis primates; Group C, 90 min post-dose): 180 beats/minute; mean arterial pressure (MAP) (M. fascicularis primates; Group C, 120 min post-dose): 62 mm Hg; heart rate (HR) (M. fascicularis primates; Group C, 120 min post-dose): 183 beats/minute; mean arterial pressure (MAP) (M. fascicularis primates; Group C, 150 min post-dose): 65 mm Hg; heart rate (HR) (M. fascicularis primates; Group C, 150 min post-dose): 187 beats/minute; mean arterial pressure (MAP) (M. fascicularis primates; Group C, 180 min post-dose): 66 mm Hg; heart rate (HR) (M. fascicularis primates; Group C, 180 min post-dose): 187 beats/minute; mean arterial pressure (MAP) (M. fascicularis primates; Group C, 210 min post-dose): 71 mm Hg; heart rate (HR) (M. fascicularis primates; Group C, 210 min post-dose): 191 beats/minute; mean arterial pressure (MAP) (M. fascicularis primates; Group C, 240 min post-dose): 79 mm Hg; heart rate (HR) (M. fascicularis primates; Group C, 240 min post-dose): 193 beats/minute; effect on heart rate (M. fascicularis primates; [4]): transient increase in heart rate that returned toward normal but leveled off and remained elevated over the 4 hours post-dose; effect on mean arterial pressure (M. fascicularis primates; [4]): decrease in mean arterial pressure
